target: recombinant human NSD2 (Homo sapiens (Human), UniProt O96028); experiment: NSD2 inhibitory activity, modified RBC HotSpot HMT Assay; assay type: biochemical; settings: recombinant human NSD2 (amino acids 2-end) 2 nM, chicken oligonucleosomes 0.05 mg/ml, 3H-SAM 1 μM, 1 hour at 30° C
Experimental: Exemplary compounds were tested for NSD2 inhibitory activity using a modified RBC HotSpot HMT Assay.
A reaction mixture was prepared by adding oligonucleosomes from Chicken (0.05 mg/ml) to freshly prepared reaction buffer containing 50 mM Tris-HCl (pH 8.5), 50 mM NaCl, 5 mM MgCl2, 0.01% Brij35, 1 mM DTT, and 1% DMSO followed by the addition of recombinant human NSD2, (amino acids 2-end) with N-terminal His tag (2 nM; GenBank Accession No. NM 001042424; MW=155.5 kDa; expressed in Sf9 insect cells) and gentle mixing. The test compounds were diluted in DMSO, added to the reaction mixture in nanoliter amounts by using Acoustic Technology (Echo 550, LabCyte Inc. Sunnyvale, CA) and incubated for 20 minutes at room temperature. The reaction was initiated by the addition of S-Adenosyl-L-[methyl-^3H] methionine (^3H-SAM; 1 μM), and the mixture was incubated for 1 hour at 30° C. The reaction mixture was delivered to filter paper and the methylated substrate was quantified by scintillation counting. Data analysis was performed using Excel and GraphPad Prism software for IC50 curve fits. For additional information on the histone methyltransferase assay, see, for example, Horiuchi K Y, et al., “Assay Development for Histone Methyltransferases,” Assay Drug Dev Technol. 2013 May; 11 (4): 227-36.

recombinant human NSD2, sequence (O96028 2-1365 limits assumed): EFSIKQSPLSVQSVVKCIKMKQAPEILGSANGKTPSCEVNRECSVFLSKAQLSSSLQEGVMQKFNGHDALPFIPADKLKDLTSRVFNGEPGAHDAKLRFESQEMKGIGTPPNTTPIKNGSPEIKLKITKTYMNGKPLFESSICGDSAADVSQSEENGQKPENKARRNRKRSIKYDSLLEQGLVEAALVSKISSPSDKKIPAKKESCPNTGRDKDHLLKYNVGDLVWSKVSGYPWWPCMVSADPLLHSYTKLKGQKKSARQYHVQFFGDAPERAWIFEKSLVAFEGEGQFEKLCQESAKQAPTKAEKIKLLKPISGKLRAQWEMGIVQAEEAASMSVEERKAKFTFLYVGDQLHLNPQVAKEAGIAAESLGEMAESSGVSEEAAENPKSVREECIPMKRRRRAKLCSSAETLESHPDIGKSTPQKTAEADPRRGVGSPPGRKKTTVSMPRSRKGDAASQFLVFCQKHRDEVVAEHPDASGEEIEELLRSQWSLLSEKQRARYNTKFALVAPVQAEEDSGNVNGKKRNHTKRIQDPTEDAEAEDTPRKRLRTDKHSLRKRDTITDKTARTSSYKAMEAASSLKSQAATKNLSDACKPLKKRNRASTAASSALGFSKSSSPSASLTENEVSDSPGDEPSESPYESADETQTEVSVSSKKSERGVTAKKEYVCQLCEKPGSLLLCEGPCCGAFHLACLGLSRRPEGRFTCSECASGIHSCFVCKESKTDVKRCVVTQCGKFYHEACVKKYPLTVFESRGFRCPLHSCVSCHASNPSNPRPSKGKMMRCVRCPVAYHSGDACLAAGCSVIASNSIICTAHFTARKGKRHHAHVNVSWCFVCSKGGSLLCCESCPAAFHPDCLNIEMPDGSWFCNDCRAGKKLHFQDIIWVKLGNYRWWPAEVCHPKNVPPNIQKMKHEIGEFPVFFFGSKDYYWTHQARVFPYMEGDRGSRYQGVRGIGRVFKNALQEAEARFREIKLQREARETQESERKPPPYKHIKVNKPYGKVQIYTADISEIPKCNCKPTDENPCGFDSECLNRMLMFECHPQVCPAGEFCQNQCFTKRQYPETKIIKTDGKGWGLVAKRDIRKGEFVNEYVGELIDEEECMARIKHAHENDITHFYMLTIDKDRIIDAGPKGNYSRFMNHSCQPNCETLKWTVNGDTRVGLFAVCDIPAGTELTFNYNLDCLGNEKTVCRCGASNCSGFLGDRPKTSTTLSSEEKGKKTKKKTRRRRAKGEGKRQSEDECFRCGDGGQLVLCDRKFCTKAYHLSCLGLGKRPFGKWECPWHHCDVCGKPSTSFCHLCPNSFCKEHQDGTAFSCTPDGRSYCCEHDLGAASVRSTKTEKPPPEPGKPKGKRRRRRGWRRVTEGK

Compound	IC50
COc1cc(F)c(-c2cc(Cn3ccc4ncccc43)c(N3CCC[C@](N)([C@H](O)C(F)F)C3)cn2)cc1F [IV-14]	> 1000 nM
COc1cc(F)c(-c2cc(CN3NCc4cnc(N)nc43)c(N3CCC[C@](N)([C@H](O)C(F)F)C3)cn2)cc1F [IV-24]	> 1000 nM
COc1cc(F)c(-c2cc(Cn3ncc4cnccc43)c(N3CCC[C@](N)([C@H](O)C(F)F)C3)cn2)cc1F [IV-15]	> 1000 nM
COc1cc(F)c(-c2cc(Cn3ncc4ncncc43)c(N3CCC[C@](N)([C@H](O)C(F)F)C3)cn2)cc1F [IV-9]	> 1000 nM
COc1cc(F)c(-c2cc(Cn3cnc4cnncc43)c(N3CCC[C@](N)([C@H](O)C(F)F)C3)cn2)cc1F [IV-8]	> 1000 nM
COc1cc(F)c(-c2cc(CN3CCc4cncnc43)c(N3CCC[C@](N)([C@H](O)C(F)F)C3)cn2)cc1F [IV-3]	> 1000 nM
COc1cc(F)c(-c2cc(Cn3cnc4ncncc43)c(N3CCC[C@](N)([C@H](O)C(F)F)C3)cn2)cc1F [IV-2]	> 1000 nM
COc1cc(F)c(-c2cc(Cn3cnc4c(O)nc(N)nc43)c(N3CCC[C@](N)([C@H](O)C(F)F)C3)cn2)cc1F [IV-17]	> 1000 nM
COc1cc(F)c(-c2cc(Cn3cnc4ccccc43)c(N3CCC[C@](N)([C@H](O)C(F)F)C3)cn2)cc1F [IV-6]	> 1000 nM
COc1cc(F)c(-c2cc(CN3CCC(=O)NC3=O)c(N3CCC[C@](N)([C@H](O)C(F)F)C3)cn2)cc1F [IV-19]	> 1000 nM
COc1cc(F)c(-c2cc(Cn3ncc4cncnc43)c(N3CCC[C@](N)([C@H](O)C(F)F)C3)cn2)cc1F [IV-10]	> 1000 nM
COc1cc(F)c(-c2cc(CNc3cc4[nH]ccc4cn3)c(N3CCC[C@](N)([C@H](O)C(F)F)C3)cn2)cc1F [IV-28]	> 1000 nM

The next lines start with the values.

IC50	Compound
> 1000 nM	COc1cc(F)c(-c2cc(Cn3cnnc3)c(N3CCC[C@](N)([C@H](O)C(F)F)C3)cn2)cc1F [IV-30]
> 1000 nM	COc1cc(F)c(-c2cc(Cn3ccc4nccnc43)c(N3CCC[C@](N)([C@H](O)C(F)F)C3)cn2)cc1F [IV-13]
> 1000 nM	COc1cc(F)c(-c2cc(Cn3ccnc3)c(N3CCC[C@](N)([C@H](O)C(F)F)C3)cn2)cc1F [IV-20]
> 1000 nM	COc1cc(F)c(-c2cc(CN3CCNC3=O)c(N3CCC[C@](N)([C@H](O)C(F)F)C3)cn2)cc1F [IV-22]
> 1000 nM	COc1cc(F)c(-c2cc(Cn3ccc4cncnc43)c(N3CCC[C@](N)([C@H](O)C(F)F)C3)cn2)cc1F [IV-4]
> 1000 nM	COc1cc(F)c(-c2cc(Cn3ncc4nccnc43)c(N3CCC[C@](N)([C@H](O)C(F)F)C3)cn2)cc1F [IV-12]
> 1000 nM	COc1cc(F)c(-c2cc(Cn3cnnn3)c(N3CCC[C@](N)([C@H](O)C(F)F)C3)cn2)cc1F [IV-29]
> 1000 nM	COc1cc(F)c(-c2cc(Cn3ccc4cnccc43)c(N3CCC[C@](N)([C@H](O)C(F)F)C3)cn2)cc1F [IV-23]
≤ 1000 nM	COc1cc(F)c(-c2cc(Cc3cnc4c(N)nccn34)c(N3CCC[C@](N)([C@H](O)C(F)F)C3)cn2)cc1F [Compound I-4, (S)-1-((R)-3-AMINO-1-(4-((8-AMINOIMIDAZO [1,2-A]PYRAZIN-3-YL)METHYL)-6-(2,5-DIFLUORO-4-METHOXYPHENYL)PYRIDIN-3-YL)PIPERIDIN-3-YL)-2,2-DIFLUOROETHAN-1-OL]
> 1000 nM	COc1cc(F)c(-c2cc(Cn3ccc(N)nc3=O)c(N3CCC[C@](N)([C@H](O)C(F)F)C3)cn2)cc1F [IV-18]
> 1000 nM	COc1cc(F)c(-c2cc(CN3Cc4nccnc4C3)c(N3CCC[C@](N)([C@H](O)C(F)F)C3)cn2)cc1F [IV-11]
> 1000 nM	COc1cc(F)c(-c2cc(Cn3cnc4nccnc43)c(N3CCC[C@](N)([C@H](O)C(F)F)C3)cn2)cc1F [IV-7]
> 1000 nM	COc1cc(F)c(-c2cc(Cn3ccnn3)c(N3CCC[C@](N)([C@H](O)C(F)F)C3)cn2)cc1F [IV-21]
≤ 1000 nM	COc1cc(F)c(-c2cc(Cn3cnc4cncnc43)c(N3CCC[C@](N)([C@H](O)C(F)F)C3)cn2)cc1F [IV-1]
≤ 1000 nM	COc1cc(F)c(-c2cc(Cn3ccc4ncncc43)c(N3CCC[C@](N)([C@H](O)C(F)F)C3)cn2)cc1F [IV-5]

From patent US20250163067A1, “NUCLEOBASE-SUBSTITUTED PIPERIDINYL-PYRIDINES AND RELATED COMPOUNDS AND THEIR USE IN TREATING DISEASES AND CONDITIONS” (K36 Therapeutics, Inc., priority 2023, published 2025)
